We go through four compounds from patent publication US4765972A (priority 1986, dated 1988).

One data set concerns 21.5 kDa polypeptide. Description: Photolabelling of calf brain homogenate with ^3 H-NABV, 21.5 kDa polypeptide. The class given is binding. As to the method: (§1) Tissue homogenate high speed supernatant and pellet fractions were obtained by homogenizing 1 gram of calf brain in 10 ml volumes of 0.05 M potassium phosphate buffer, pH 7.4, for one minute with a Model PCU Polytron homogenizer with a PT-10-ST probe operated at 50% maximum power (Brinkmann Instruments, Westbury, NY). The brain tissue homogenate was collected after filtering through one layer of cheesecloth. Brain tissue high speed supernatant fractions were prepared by centrifuging the homogenates at 100,000×g for 60 minutes at 4° C. The resulting pellet was washed twice with five times its original volume of buffer, and recentrifuged as described. […] and supernatant fractions were stored in small aliquots in liquid nitrogen and thawed only once.
(§2) The standard photolabelling mixture used contained 50 nM ^3 H-NABV (50.6 Ci/mmol), 4% dimethylsulfoxide, […] potassium phosphate buffer, pH 7.0, and 2 mg/ml of tissue homogenate or high speed pellet or supernatant fractions in a final volume of 0.05 ml in polyvinylchloride V-microtiter wells (Dynatech Labs, Inc., Alexandria, VA) in a 25° C. water bath. Photolabelling mixtures were incubated for 15 minutes at 25° C. before photolysis. Photoactivation was performed for 10-20 minutes with a UV light equipped with two 15 W self-filtering 302 nm lamps (Model xx-15, Ultra-Violet Products, Inc., San Gabriel, CA), placed 3.4 cm above the photolabelling mixture. […] Photoactivated samples were immediately processed for SDS-PAGE or frozen at -70° C.
(§3) Equal volumes of SDS sample buffer were added to photolabelled mixtures in microliter wells. The mixtures were transferred to 0.5 ml centrifuge tubes. After heating for five minutes at 100° C. on a heating block, the mixtures were cooled on ice and sonicated for five seconds, cooled, and 0.08 ml aliquots of the mixtures were applied to separate wells of a 1.5 mm thick polyacrylamide slab gel.
(§4) Electrophoresis was performed as described by Laemmli in Nature (Lond.) 227, 680-685 (1970) with a linear polyacrylamide gradient from 9.7% acrylamide, 0.26% bis-acrylamide and 10% glycerol, to 16.6% acrylamide, 0.44% bis-acrylamide, and 17% glycerol using a Bio-Rad slab gel apparatus (Model 220, Richmond, CA) at 8 mA/gel for sixteen hours. Following fixation and staining of the gel, in 0.25% Coomassie brilliant blue, 45% methanol and 10% acetic acid, the lanes of stained polypeptide corresponding to each sample slot were cut and sliced into 1.0 mm slices. Each slice was incubated with 0.3 ml 30% H2 O2 in a closed scintillation vial at 100° C. for one hour to solubilize the gel slice, with radioactivity subsequently quantitated. The molecular weights of radioactive macromolecules were estimated by their mobilities relative to standard proteins of known molecular weights. (Bio-Rad, Richmone, CA). The radioactivity of photolabelled components was quantitated in triplicate by adding the dpm in each 1 mm gel slice through the radioactive peak.
(§5) The specific photolabelling was obtained by subtracting the nonspecific linear curve from the mixed biphasic profile.

Data set [1] concerns 54.3 kDa polypeptide (tubulin subunit). Description: Photolabelling of calf brain homogenate with ^3 H-NABV, 54.3 kDa polypeptide. The class given is binding. As to the method: as §1, §2, §3, §4, §5
In data set [2] the test system is 150-180 kDa surface membrane glycoprotein (gp150-180). Description: Photoaffinity labelling of purified plasma membranes with ^125 I-NASV. The data set is classed as binding, Chinese hamster. To be noted: plasma membranes. As to the method:
Cell lines were cultured as described by Peterson et al., Cancer Res. 43, 222-228 (1983) and by Meyers et al., J. Cell. Biol. 100, 588-597 (1985). Vincristine-resistant (DC-3F/VCRd-5L, 2750-fold resistant) and actinomycin D-resistant (DC=3F/ADX, 2450-fold resistant) variants were selected from Chinese hamster lung (DC-3F) cells as described in the above-cited articles. The drug-sensitive revertant (DC-3F/ADX-U, 30-fold resistant to actinomycin D) was obtained from DC-3F/ADX cells grown in the absence of drugs. The resistant cells expressed a typical multidrug-resistant phenotype as typified by cross-resistance to a number of unrelated natural product compounds. Whole cell particulate fractions were prepared by the sonication of drug-sensitive or drug-resistant cells in 50 mM potassium phosphate buffer (pH 7.4), followed by centrifugation at 100,000×g for one hour. The particulate pellet was washed by resuspending in the same buffer, and the whole cell particulate fraction was obtained by a second centrifugation. Purified plasma membranes were prepared by sucrose density gradient centrifugation as described in Peterson et al in J. Supramolecular Structure 9, 289-298 (1978). Protein concentrations were determined by the procedure of Lowry et al., J. Biol. Chem., 193, 265-275 (1951).
Photolabelling of membrane samples (50 micrograms protein) was performed in 40 nM potassium phosphate buffer (pH 7.0) containing 4% Me2 SO and 50 nM of either ^3 H-NABV (0.1 microCi) or ^125 I-NASV (0.2 microCi) in a final volume of 0.050 ml. […] SDS-PAGE of 5-15% gradient gels containing 4.5 M urea, fluorography, and autoradiography were performed as described by Felsted et al. in Blood 66, 606-613 (1985). The quantitation of radiolabelling was accomplished by cutting appropriate areas from the gel and counting the pieces in a gamma counter.
A plasma membrane localization for the 150-180 kDa component was established by photoaffinity labelling sucrose density gradient purified plasma membranes from drug-sensitive and drug-resistant cells with ^3 H-NABV. […] These membranes, as well as membranes from another multidrug-resistant variant (DC-3F/ADX) originally selected for resistance to actinomycin D and from a revertant (DC-3F/ADX-U) obtained from the DC-3F/ADX variant were also photoaffinity labelled with ^125 I-NASV. […] In contrast, radiolabelling of the 150-180 kDa component in the DC-3F/ADX-U revertant cells was increased by only about 15-fold. […] In other studies, a number of drug-sensitive cell lines have been shown by immunoblottings to have barely detectable levels of analogous 150-180 kDa surface membrane glycoproteins compared to the corresponding multidrug-resistant variants. […]

Data set [3] is described as follows: In-vitro NABV metabolism in calf brain homogenates. The class given is in vitro ADME. To be noted: dark, 30-60 minutes at 0°, 25°, and 37° C. As to the method: In-vitro NABV Metabolism Calf brain homogenates (100 micrograms protein) were incubated with 3H-NABV under standard photolabelling conditions for 30 minutes at 25° C. in the absence of UV light. The mixture was then extracted with 1 ml chloroform and analyzed for radioactive materials in the organic extract by silica gel thin layer chromatography using Solvent I.
This was confirmed by incubating ^3 H-NABV with brain homogenates in the dark for 30-60 minutes at 0°, 25°, and 37° C., subsequently extracting the mixtures with chloroform, and analyzing for radioactive metabolites by silica gel thin layer chromatography and high pressure liquid chromatography. A single radioactive spot corresponded to the Rf of NABV and accounted for more than 98% of the recovered radioactivity.

Where [4] appears, read: 0.44 micromoles ^3 H-NABV, competitor 1-22 micromoles.
Where [5] appears, read: corrected for nonspecific labelling, apparent, not a true equilibrium constant, read-out: half maximal saturation photolabelling.
[6] abbreviates: saturation photolabelling experiments.

`COc1cccc2c1C(=O)c1c(O)c3c(c(O)c1C2=O)C[C@@](O)(C(C)=O)C[C@@H]3O[C@H]1C[C@H](N)[C@H](O)[C@H](C)O1` [daunorubicin]: the “effect of increasing concentrations of competitor on photolabelling” value (with 21.5 kDa polypeptide (setting [4]); in data set [1] (setting [4])) was “negligible effects” throughout.
For `Nc1ccc(C(=O)O)cc1` [p-aminobenzoic acid], the “effect of nitrene scavenger on photolabelling” value in the data set with 21.5 kDa polypeptide (10^3 -fold molar excess) is “no significant effect”. Moreover, the entries for the “reduction of photolabelling by nitrene scavenger” value (with 21.5 kDa polypeptide (10^4 -fold molar excess); in data set [1] (100-fold excess over [^3 H]-NABV)) were 30% and 25%, respectively. Moreover, the “further reduction of photolabelling by nitrene scavenger” value in data set [1] (up to 10^4 -fold molar excess) was “no significant further reduction”.
Regarding “N-(p-azido-3-[^125 I-]-salicyl-N'-beta-aminoethylvindesine [^125 I-NASV]”, the “increase of radiolabelling of the 150-180 kDa component versus drug-sensitive parental cells” value in data set [2] (DC-3F/ADX-U revertant cells) is recorded as “about 15 fold”; in data set [2] (drug-resistant variants (DC-3F/VCRd-5L, DC-3F/ADX)), “up to 150 fold”.
With “N-(p-azido-[3,4-^3 H]benzoyl)-N'-beta-aminoethylvindesine [^3 H-NABV]”, the values for the maximum saturable incorporation (with 21.5 kDa polypeptide; in data set [1]) were 0.9 pmol ^3 H-NABV bound/mg of calf brain homogenate protein and 5.5 pmol ^3 H-NABV bound/mg of calf brain homogenate protein, respectively. Moreover, the Kd at 21.5 kDa polypeptide (setting [5]) came to 95 nM; in data set [1] (setting [5]), 208 nM. The entries for the “percent of total labelling ascribed to nonspecific labelling” value (with 21.5 kDa polypeptide (setting [6]); in data set [1] (setting [6])) were 51% and 48%, respectively. In data set [3], the “metabolism under standard photolabelling conditions” value is recorded as “no appreciable metabolism”. For the same compound, in data set [3] (TLC and HPLC), the “recovered radioactivity in the single spot corresponding to the Rf of NABV” value is reported as “more than 98%”.
